From patent US9789111B2, “Casein kinase 1δ (CK 1δ) inhibitors” (Electrophoretics Limited, priority 2010, dated 2017)

What was measured:
ALK4/ACVR1B = ALK4/ACVR1B (Homo sapiens, UniProt P36896); assay: kinase inhibition assay panel; assay type: biochemical
Method in brief: (§1)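 Radiometric filter-binding assay: kinase and substrate in 20 mM Hepes pH 7.5, 10 mM MgCl2, 1 mM EGTA, 0.02% Brij35, 0.02 mg/ml BSA, 0.1 mM Na3VO4, 2 mM DTT, 1% DMSO, with cofactors added per kinase. Started with 33P-ATP, run 120 min at room temperature, spotted on P81 paper, washed in 0.75% phosphoric acid.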

EPHA2 = EPHA2 (Homo sapiens, UniProt P29317); assay: kinase inhibition assay panel; assay type: biochemical
Method in brief: as §1

PKA = PKA (Homo sapiens, UniProt P17612); assay: kinase inhibition assay panel; assay type: biochemical
Method in brief: as §1

RIPK2 = RIPK2 (Homo sapiens, UniProt O43353); assay: kinase inhibition assay panel; assay type: biochemical
Method in brief: as §1

YES/YES1 = YES/YES1 (Homo sapiens, UniProt P07947); assay: kinase inhibition assay panel; assay type: biochemical
Method in brief: as §1

ALK5/TGFBR1 = ALK5/TGFBR1 (Homo sapiens, UniProt P36897); assay: kinase inhibition assay panel; assay type: biochemical
CK1a1 = CK1a1 (Homo sapiens, UniProt P48729); assay: kinase inhibition assay panel; assay type: biochemical
EGFR = EGFR (Homo sapiens, UniProt P00533); assay: kinase inhibition assay panel; assay type: biochemical
SH-SY5Y-TMHT cells = assay: Cell viability, MTT assay; assay type: cell-based, human; details: 6 h of treatment
Description: SH-SY5Y-TMHT cells are kept in culture medium (DMEM medium, 10% FCS, 1% NEAA, 1% L-Glutamine, 100 μg/ml Gentamycin, 300 μg/ml Geneticin G-418) for 2 days until 80-90% confluency. Cells are then differentiated in culture medium supplemented with 10 μM retinoic acid (RA) for 7 days changing medium every 2 to 3 days. Differentiated cells are seeded onto 6-well plates and 96-well plates at a cell density of 1.25×10^6 and 8×10^5 cells per well, respectively. On day 8 post-differentiation, the test compounds, reference compounds and vehicle control were added to the culture medium. After 6 h of compound exposure one plate of cells is subjected to a MTT assay to evaluate the effect of test and reference items on cell viability. Remaining wells are washed once with cold PBS and harvested in 300 μl RIPA-Buffer [50 mM Tris pH 7.4, 1% Nonident P40, 0.25% Na-deoxy-cholate, 150 mM NaCl, 1 mM EDTA, 1 μM NaF, 1 μM Na-ortho-vanadate, 80 mM Glycerophosphate, supplemented with freshly added protease (Calbiochem) and phosphatase (Sigma) inhibitor cocktail]. The cell suspension is transferred into a 1.5 ml tube and additionally lysed by sonication on ice. An aliquot of 20 μl is taken for the determination of the protein concentration (BCA assay). Subsequently, the lysates are snap frozen and stored at −80° C. until shipment.
To determine compound activity, it is necessary to control for potential cell toxicity of all molecules. Viability of cultures is determined by the MTT assay. This assay allows the measurement of the mitochondrial dehydrogenase activity which reduces yellow MTT to dark blue formazan crystals. Since this reaction is catalyzed in living cells only this assay is used for the determination of cell viability. MTT solution is added to each well in a final concentration of 0.5 mg/ml. After 2 hours, the MTT containing medium is aspired. Cells are lysed in 3% SDS and the formazan crystals are dissolved in isopropanol/HCl. Optical density is measured with a plate-reader at wavelength 570 nm. Cell survival rate is expressed as optical density (OD). Values are calculated as percent of control values.
Cell viability was determined in differentiated SH-SY5Y-TMHT cells by the MTT assay. Test and reference compounds were applied in a concentration range from 0.05 μM to 10 μM and from 0.1 μM to 1 μM, respectively. Upon 6 h of treatment, cell viability was evaluated. […] Statistical significance is indicated by *<0.05, **<0.01, ***<0.001 as determined by One-Way ANOVA. Data are shown from two independent experiments as group mean+/−SEM (n=8). […] Statistical significance is indicated by *<0.05, **<0.01, ***<0.001 as determined by One-Way ANOVA. […] Statistical significance is indicated by *<0.05, **<0.01, ***<0.001 as determined by One-Way ANOVA. […]

CK1g2 = CK1g2 (Homo sapiens, UniProt P78368); assay: kinase inhibition assay panel; assay type: biochemical
Chain of CK1g2 (P78368 whole entry, species assumed): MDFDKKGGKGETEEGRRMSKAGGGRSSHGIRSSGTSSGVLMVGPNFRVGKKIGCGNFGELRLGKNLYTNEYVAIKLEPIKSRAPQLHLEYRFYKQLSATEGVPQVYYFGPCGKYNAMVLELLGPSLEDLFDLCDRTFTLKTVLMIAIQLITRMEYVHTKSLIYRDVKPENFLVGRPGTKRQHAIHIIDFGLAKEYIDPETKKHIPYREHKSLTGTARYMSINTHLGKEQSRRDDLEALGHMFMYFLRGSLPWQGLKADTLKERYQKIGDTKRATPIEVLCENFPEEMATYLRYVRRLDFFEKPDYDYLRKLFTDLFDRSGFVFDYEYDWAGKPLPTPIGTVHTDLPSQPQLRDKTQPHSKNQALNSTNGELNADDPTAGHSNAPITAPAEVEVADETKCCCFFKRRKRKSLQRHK

Chain of EPHA2 (P29317 24-976, species assumed): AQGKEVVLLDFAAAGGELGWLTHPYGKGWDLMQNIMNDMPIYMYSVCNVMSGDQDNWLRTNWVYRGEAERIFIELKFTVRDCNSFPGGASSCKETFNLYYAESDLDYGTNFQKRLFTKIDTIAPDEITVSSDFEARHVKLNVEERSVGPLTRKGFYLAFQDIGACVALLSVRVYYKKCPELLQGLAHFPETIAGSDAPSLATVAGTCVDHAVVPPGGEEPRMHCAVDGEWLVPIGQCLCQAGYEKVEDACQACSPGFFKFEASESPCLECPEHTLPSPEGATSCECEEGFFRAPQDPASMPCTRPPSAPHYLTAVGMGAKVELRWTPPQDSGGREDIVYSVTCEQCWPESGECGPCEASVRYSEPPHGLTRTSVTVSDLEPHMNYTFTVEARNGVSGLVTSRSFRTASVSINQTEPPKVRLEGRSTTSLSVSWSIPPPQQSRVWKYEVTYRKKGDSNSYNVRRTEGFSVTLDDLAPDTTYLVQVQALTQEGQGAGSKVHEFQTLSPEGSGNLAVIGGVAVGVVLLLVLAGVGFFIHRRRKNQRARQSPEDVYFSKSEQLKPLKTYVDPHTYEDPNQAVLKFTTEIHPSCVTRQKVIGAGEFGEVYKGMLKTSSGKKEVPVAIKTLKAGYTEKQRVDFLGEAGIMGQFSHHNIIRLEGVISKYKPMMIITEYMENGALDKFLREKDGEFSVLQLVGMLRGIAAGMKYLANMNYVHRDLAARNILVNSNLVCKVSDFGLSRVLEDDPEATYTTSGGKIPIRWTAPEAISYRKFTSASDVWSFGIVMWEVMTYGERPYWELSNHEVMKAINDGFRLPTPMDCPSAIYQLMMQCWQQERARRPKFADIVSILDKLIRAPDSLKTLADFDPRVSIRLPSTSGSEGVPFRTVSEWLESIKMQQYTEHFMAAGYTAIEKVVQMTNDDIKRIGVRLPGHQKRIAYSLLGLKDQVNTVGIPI
Chain of EGFR (P00533 25-1210, species assumed): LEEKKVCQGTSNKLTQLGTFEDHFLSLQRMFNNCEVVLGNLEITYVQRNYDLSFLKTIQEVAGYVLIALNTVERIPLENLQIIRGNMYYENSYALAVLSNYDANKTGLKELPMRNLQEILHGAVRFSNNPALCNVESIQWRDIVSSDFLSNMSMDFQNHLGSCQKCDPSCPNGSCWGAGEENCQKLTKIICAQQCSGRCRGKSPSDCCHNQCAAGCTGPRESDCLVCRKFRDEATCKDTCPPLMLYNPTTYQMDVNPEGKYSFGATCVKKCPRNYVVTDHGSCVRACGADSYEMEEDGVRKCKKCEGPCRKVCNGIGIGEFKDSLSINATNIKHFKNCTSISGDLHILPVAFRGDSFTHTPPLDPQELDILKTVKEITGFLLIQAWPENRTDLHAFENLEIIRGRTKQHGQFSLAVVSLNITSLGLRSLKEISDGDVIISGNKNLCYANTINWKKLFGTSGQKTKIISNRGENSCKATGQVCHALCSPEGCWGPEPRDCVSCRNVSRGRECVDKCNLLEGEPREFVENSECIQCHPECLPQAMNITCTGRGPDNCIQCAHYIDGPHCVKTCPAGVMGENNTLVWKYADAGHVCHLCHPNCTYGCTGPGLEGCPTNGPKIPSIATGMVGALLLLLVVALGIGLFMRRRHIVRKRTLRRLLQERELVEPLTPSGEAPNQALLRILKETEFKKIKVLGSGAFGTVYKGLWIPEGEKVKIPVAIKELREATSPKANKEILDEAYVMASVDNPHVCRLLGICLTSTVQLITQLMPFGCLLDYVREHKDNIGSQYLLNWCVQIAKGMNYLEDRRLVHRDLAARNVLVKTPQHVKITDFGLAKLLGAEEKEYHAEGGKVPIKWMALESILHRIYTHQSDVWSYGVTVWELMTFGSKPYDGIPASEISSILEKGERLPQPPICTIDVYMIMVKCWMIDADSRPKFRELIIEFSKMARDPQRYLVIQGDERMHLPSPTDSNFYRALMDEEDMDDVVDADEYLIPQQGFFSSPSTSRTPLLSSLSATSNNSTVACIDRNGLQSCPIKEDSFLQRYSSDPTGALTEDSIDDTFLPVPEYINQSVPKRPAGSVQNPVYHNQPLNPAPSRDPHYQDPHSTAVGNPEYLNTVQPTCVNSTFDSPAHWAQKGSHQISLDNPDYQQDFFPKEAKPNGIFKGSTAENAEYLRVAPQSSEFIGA
Chain of ALK5/TGFBR1 (P36897 34-503): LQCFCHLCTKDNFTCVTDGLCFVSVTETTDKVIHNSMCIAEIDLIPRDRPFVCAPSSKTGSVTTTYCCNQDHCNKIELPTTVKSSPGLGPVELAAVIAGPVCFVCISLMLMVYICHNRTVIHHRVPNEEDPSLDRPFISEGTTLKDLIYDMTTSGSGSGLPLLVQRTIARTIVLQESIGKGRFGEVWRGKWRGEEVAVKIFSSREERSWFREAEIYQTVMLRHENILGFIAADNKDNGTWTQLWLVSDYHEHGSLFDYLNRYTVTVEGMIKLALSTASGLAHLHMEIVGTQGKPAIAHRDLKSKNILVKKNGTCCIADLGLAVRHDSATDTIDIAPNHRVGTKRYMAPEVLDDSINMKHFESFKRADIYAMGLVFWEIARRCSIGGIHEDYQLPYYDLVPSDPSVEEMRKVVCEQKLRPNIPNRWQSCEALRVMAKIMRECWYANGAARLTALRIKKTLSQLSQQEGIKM
Chain of RIPK2 (O43353 whole entry, species assumed): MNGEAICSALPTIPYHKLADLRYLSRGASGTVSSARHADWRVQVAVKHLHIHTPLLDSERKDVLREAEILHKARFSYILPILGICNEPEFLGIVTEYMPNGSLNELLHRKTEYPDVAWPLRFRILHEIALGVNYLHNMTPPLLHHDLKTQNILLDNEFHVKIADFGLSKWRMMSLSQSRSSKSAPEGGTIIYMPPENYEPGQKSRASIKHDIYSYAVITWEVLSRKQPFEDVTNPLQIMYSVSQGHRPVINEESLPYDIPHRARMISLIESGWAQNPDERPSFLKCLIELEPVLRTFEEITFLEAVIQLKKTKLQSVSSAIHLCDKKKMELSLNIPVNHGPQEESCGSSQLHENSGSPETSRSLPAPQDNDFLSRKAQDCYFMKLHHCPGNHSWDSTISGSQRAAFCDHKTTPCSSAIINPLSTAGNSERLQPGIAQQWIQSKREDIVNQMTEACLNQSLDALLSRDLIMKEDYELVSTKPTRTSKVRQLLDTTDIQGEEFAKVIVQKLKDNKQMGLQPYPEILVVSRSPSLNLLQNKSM
Chain of CK1a1 (P48729 whole entry): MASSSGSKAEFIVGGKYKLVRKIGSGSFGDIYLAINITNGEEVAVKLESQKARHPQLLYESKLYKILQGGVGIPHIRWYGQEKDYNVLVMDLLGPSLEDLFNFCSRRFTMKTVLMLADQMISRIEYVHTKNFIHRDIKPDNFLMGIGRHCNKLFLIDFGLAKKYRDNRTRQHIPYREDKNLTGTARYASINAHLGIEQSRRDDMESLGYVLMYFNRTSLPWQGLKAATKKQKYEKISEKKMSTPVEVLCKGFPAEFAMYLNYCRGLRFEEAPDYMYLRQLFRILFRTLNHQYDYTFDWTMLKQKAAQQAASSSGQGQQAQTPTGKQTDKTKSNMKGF
Chain of YES/YES1 (P07947 whole entry): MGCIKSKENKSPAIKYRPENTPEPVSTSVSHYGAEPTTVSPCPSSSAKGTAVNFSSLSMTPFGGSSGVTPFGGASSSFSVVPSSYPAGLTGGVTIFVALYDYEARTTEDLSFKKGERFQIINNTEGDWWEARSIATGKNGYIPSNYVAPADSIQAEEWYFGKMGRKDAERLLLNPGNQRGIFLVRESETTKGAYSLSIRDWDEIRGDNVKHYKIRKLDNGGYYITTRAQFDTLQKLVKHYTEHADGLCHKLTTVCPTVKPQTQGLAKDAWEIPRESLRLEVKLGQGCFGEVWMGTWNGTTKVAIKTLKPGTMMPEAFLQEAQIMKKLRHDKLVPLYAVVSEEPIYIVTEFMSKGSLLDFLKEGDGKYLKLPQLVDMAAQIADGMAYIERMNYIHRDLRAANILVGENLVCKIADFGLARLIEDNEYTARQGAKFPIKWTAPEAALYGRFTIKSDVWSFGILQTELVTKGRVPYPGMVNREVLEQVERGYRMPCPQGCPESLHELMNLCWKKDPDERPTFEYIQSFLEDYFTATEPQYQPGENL
Chain of ALK4/ACVR1B (P36896 24-505): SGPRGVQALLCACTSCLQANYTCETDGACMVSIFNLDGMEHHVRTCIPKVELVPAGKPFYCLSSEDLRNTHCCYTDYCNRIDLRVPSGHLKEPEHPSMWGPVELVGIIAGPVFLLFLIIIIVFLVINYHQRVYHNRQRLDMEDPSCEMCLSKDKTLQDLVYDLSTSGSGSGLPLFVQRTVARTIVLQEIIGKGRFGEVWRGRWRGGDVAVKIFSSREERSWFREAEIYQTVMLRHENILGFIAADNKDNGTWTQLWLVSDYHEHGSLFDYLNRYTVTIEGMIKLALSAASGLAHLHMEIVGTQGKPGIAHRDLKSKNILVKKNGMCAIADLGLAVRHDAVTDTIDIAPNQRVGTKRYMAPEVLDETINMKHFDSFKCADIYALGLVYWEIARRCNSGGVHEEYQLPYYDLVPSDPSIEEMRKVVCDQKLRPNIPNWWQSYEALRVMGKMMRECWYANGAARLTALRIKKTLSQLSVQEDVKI

Compound | inhibition of ALK4/ACVR1B (ALK4/ACVR1B) | inhibition of EPHA2 (EPHA2) | inhibition of PKA (PKA) | inhibition of RIPK2 (RIPK2) | inhibition of YES/YES1 (YES/YES1) | inhibition of ALK5/TGFBR1 (ALK5/TGFBR1) | inhibition of CK1a1 (CK1a1) | inhibition of EGFR (EGFR) | effect on the cell viability of SH-SY5Y-TMHT cells (SH-SY5Y-TMHT cells; 0.05 μM to 10 μM, vs vehicle control) | protective effect on cell viability, statistical significance (SH-SY5Y-TMHT cells; 10 μM, One-Way ANOVA) | inhibition of CK1g2 (CK1g2) | effect on the cell viability of SH-SY5Y-TMHT cells (SH-SY5Y-TMHT cells; 1 and 0.5 μM)
Nc1ncc(-c2nc3ccccc3o2)c(-c2ccncc2)n1 [Compound 324, 5-(1,3-benzoxazol-2-yl)-4-(pyridin-4-yl)pyrimidin-2-amine] | lower than 40% | lower than 40% | lower than 40% | lower than 40% | lower than 40% | lower than 40% | lower than 40% | lower than 40% | protective effect on the cell viability of SH-SY5Y-TMHT cells in a dose dependent manner | statistically significant | – | –
NC(=O)c1c(N)c(C(=O)c2ccc(F)cc2)n2ccccc12 [Compound 987, 2-amino-3-[(4-fluorophenyl)carbonyl]indolizine-1-carboxamide] | – | – | – | – | – | – | – | – | – | – | lower than 40% | no cytotoxic effect
